We go through 18 molecules from patent US10961234B2, “Oxazole derivatives for use in the treatment of cancer” (LIFEARC, priority 2016, dated 2021).

In experiment [1] the test system is LM2 and MDA-MB-231 breast cancer cell lines. Nature of the experiment: PAICS 2D cell proliferation assay. The class given is cell-based. Particulars: Homo sapiens; 72 hours incubation; cell line (LM2 or MDA-MB-231) not given. On the procedure: Frozen cryovial stocks of LM2 and MDA-MB-231 breast cancer cell lines were thawed and cultured in 4.5 g/L glucose DMEM (31966-047, Invitrogen) supplemented with 10% Fetal Bovine Serum (10500-064, Invitrogen) until confluent in a T175 flask. Cells were incubated at 37° C. with 5% CO2 in a humidified incubator.
Cells were collected from T175 flasks by washing with PBS (10010-056, Invitrogen) and dissociated using Accutase (A6964, Sigma Aldrich). This was followed by centrifuging (1200 rpm, 5 min) and resuspending the cells in 10 ml of media containing 1% penicillin/streptomycin (15140-122, Invitrogen). Cells were counted by trypan blue exclusion method using an automated cell counter (Cellometer) and diluted to a concentration of 40,000/ml. 1000 cells were then seeded into 384-well white-walled plates (Corning, 3707) in a volume of 25 μl. Plates were incubated overnight at 37° C. with 5% CO2.
After 24 hours, PAICS compounds were added onto the assay plates using an HP D300 Digital Dispenser (Hewlett Packard). 10 mM stocks were used and dispensed as a 10 point concentration response curve (CRC) ½ log dilution series with a final top concentration of 100 μM. Controls were added onto each plate: positive controls included Staurosporine CRC (100 μM stock dispensed as a 10 point CRC ½ log dilution series with a final top concentration of 1 μM) and PAICS compound MRT00211919 (10 mM stock dispensed as a 10 point CRC ½ log dilution series with a final top concentration of 100 μM); a high control of Staurosporine (0.1 μM (LM2), 0.316 μM (MDA-MB-231) FAC) and a low control of media containing 1% DMSO. A final concentration of 1% DMSO was then added across the plates for normalisation. Following compound addition, assay plates were incubated for 72 hours at 37° C. with 5% CO2.
After 72 h incubation, dead and viable cells were measured in each assay plate. Cytotoxicity was assessed through fluorescent DNA staining using the CellTox™ Green Cytotoxicity Assay kit (G8743, Promega) following the manufacturer's multiplexing protocol. Impaired cell membrane integrity results in the access of dye to stain DNA allowing quantification of dead cells. Cell viability was determined following ATP quantification using the CellTiter-Glo® Luminescent Cell Viability Assay kit (G7572, Promega) following the manufacturer's protocol. ATP released from lysed cells allowed for the generation of a signal proportional to the number of cells present in the well. All endpoint reads were performed using the PheraSTAR Plus (BMG Labtech). Data is expressed as % viable cells and % dead cells against controls (mean±SEM of duplicate curves).

In experiment [2] the target is T1, WT full length PAICS (Homo sapiens, UniProt P22234).
T1 construct: 5 μl WT full length PAICS (final assay concentration, fac, 2.5 nM) in basic buffer
T1 sequence (P22234 1-425): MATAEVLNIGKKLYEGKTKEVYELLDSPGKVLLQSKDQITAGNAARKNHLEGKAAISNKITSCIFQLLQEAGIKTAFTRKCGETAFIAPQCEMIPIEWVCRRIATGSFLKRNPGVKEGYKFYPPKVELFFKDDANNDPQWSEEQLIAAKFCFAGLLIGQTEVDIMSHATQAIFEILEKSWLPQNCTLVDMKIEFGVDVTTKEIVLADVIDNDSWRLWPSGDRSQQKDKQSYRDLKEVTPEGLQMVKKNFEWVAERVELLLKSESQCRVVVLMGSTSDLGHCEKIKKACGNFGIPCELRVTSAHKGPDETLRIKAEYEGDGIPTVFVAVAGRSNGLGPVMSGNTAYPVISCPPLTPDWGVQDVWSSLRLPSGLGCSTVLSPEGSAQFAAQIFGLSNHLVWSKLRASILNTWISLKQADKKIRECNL
Nature of the experiment: Biochemical assay to measure PAICS activity (Transcreener ADP2 FI, SAICAR synthetase reaction). The following applies: PAICS 2.5 nM, 30 mins pre-incubation, ADP detection by fluorescence intensity. From the text:
The biochemical assay was used to measure PAICS SAICAR synthetase-mediated conversion of CAIR, aspartic acid and ATP to SAICAR, ADP and inorganic phosphate (PI), post-AIR/CAIR equilibration (see FIG. 3). This was achieved by detecting the ADP generated during the reaction, using Bellbrook Lab's Transcreener ADP^2 FI assay. An increase in the fluorescence intensity is directly proportional to the amount of PAICS activity.
The Transcreener ADP^2 FI assay is a homogeneous competitive displacement fluorescence intensity assay which uses direct immunodetection of ADP. Displacement of the tracer by ADP causes an increase in the fluorescence at excitation 590 nm and emission 617 nm (FIG. 3).
5 μl WT full length PAICS (final assay concentration, fac, 2.5 nM) in basic buffer, added to black, non-binding, 384-well plates (Corning #3575), columns 1 to 22.5 μl basic buffer was added to columns 23+24 (negative control). PAICS stock at 31.9 μM from the PI's lab (Steve Firestine). Basic buffer contained 50 mM Tris-HCl pH8 and 0.5 mM EDTA, fac.
1 μl compound in 100% DMSO added per well, or 1 μl 100% DMSO to positive controls (columns 1+2) and negative controls (columns 23+24). Final assay top concentration of compound either 1 mM or 30 μM, serially diluted with half-log dilutions across the plate in duplicate (one 10-point concentration response curve across wells 3 to 12, another across 13 to 22). Compounds pre-incubated with PAICS enzyme for 30 mins at RT.
2 μl CAIR added (fac 10 μM) in basic buffer plus 25 mM MgCl2 and 50 mM KHCO3 fac to all wells. CAIR stock 50 mM from Steve Firestine's lab. 1 hr RT incubation for AIR-CAIR equilibration. NB: ˜50% CAIR is decarboxylated during equilibration therefore 5 μM remains for the synthetase reaction.
2 μl ATP/aspartic acid added (fac 30 μM/180 μM) in reaction buffer to all wells. 30 mins RT incubation for appropriate level of ATP turnover. Reaction buffer contained basic buffer plus 10 mM DTT, 0.01% BSA and 0.01% Brij 35, fac.
10 μl ADP detection reagent added to all wells (as per instructions, Transcreener ADP^2 FI kit, BellBrook Labs #3013-10K). Incubation for 1 h at RT to allow antibody equilibration. Fluorescence intensity determined using a Tecan Safire2 (excitation at 590 nm, emission at 617 nm).

Molecules are shown by their SMILES.

In the case of `Cc1nn(C2CCNCC2)cc1-c1ccc(Cl)c(NC(=O)c2coc(N)n2)c1` [Example 55, 2-Amino-N-(2-chloro-5-(3-methyl-1-(piperidin-4-yl)-1H-pyrazol-4-yl)phenyl)oxazole-4-carboxamide], the 50% effective concentration (EC50) in experiment [1] was 0.1 to 0.25 µM. For the same molecule, the half-inhibitory concentration (IC50) in experiment [2] was 0.01 to 0.025 µM.
`CN(C)CC(=O)N1CCC(n2cc(-c3ccc(Cl)c(NC(=O)c4coc(N)n4)c3)cn2)CC1` [Example 62, 2-Amino-N-(2-chloro-5-{1-[1-(N,N-dimethylglycyl)piperidin-4-yl]-1H-pyrazol-4-yl}phenyl)-1,3-oxazole-4-carboxamide] had an EC50 in experiment [1] of 0.1 to 0.25 µM. For the same molecule, in experiment [2], the half-inhibitory concentration (IC50) is more than 0.1 µM.
Take `Nc1nc(C(=O)Nc2cc(-c3ccc(OCC4CCCNC4)nc3)ccc2Cl)co1` (stereo not drawn) [Example 69, 2-Amino-N-(2-chloro-5-(6-(piperidin-3-ylmethoxy)pyridin-3-yl)phenyl)oxazole-4-carboxamide]: the EC50 in experiment [1] lay in the range of 0.25 to 0.5 µM. In experiment [2], this molecule showed an IC50 of 0.01 to 0.025 µM.
Taken in the same sequence, the figures for `CN1CCC(n2cc(-c3ccc(Cl)c(NC(=O)c4coc(N)n4)c3)cn2)CC1` [Example 44, 2-Amino-N-{2-chloro-5-[1-(1-methylpiperidin-4-yl)-1H-pyrazol-4-yl]phenyl}-1,3-oxazole-4-carboxamide] were 0.1 to 0.25 µM and more than 0.1 µM.
Molecule `Nc1nc(C(=O)Nc2cc(-c3ccc(CN4CC5CNCC5C4)nc3)ccc2Cl)co1` (stereo not drawn) [Example 79, 2-Amino-N-{2-chloro-5-[6-(hexahydropyrrolo[3,4-c]pyrrol-2(1H)-ylmethyl)pyridin-3-yl]phenyl}-1,3-oxazole-4-carboxamide] came in with an EC50 in experiment [1] of 0.25 to 0.5 µM. This molecule also yielded an IC50 in experiment [2] of 0.01 to 0.025 µM.
In turn, `CN1CCN(Cc2ccc(-c3ccc(Cl)c(NC(=O)c4coc(N)n4)c3)cn2)CC1` [Example 83, 2-Amino-N-(2-chloro-5-{6-[(4-methylpiperazin-1-yl)methyl]pyridin-3-yl}phenyl)-1,3-oxazole-4-carboxamide] yielded an EC50 in experiment [1] of 0.25 to 0.5 µM. In experiment [2], the IC50 fell in the range of 0.025 to 0.1 µM.
Taken in the same sequence, the figures for `Nc1nc(C(=O)Nc2cc(-c3cnn(C4CCN(CCO)CC4)c3)ccc2Cl)co1` [Example 66, 2-Amino-N-(2-chloro-5-{1-[1-(2-hydroxyethyl)piperidin-4-yl]-1H-pyrazol-4-yl}phenyl)-1,3-oxazole-4-carboxamide] were 0.1 to 0.25 µM and more than 0.1 µM.
In experiment [1], `CN(C)CCCOc1ccc(-c2ccc(Cl)c(NC(=O)c3coc(N)n3)c2)cn1` [Example 72, 2-Amino-N-(2-chloro-5-{6-[3-(dimethylamino)propoxy]pyridin-3-yl}phenyl)-1,3-oxazole-4-carboxamide] yielded an EC50 of 0.1 to 0.25 µM. This molecule also displayed a concentration for half-maximal inhibition (IC50) in experiment [2] of 0.01 to 0.025 µM.
Taken in the same sequence, the figures for `CN(C)CCOc1ccc(-c2ccc(Cl)c(NC(=O)c3coc(N)n3)c2)cc1` [Example 75, 2-Amino-N-{4-chloro-4′-[2-(dimethylamino)ethoxy]biphenyl-3-yl}-1,3-oxazole-4-carboxamide] were 0.1 to 0.25 µM and 0.025 to 0.1 µM.
On the same counts, the results for `Nc1nc(C(=O)Nc2cc(-c3ccc(CN4CCNCC4)nc3)ccc2Cl)co1` [Example 76, 2-Amino-N-{2-chloro-5-[6-(piperazin-1-ylmethyl)pyridin-3-yl]phenyl}-1,3-oxazole-4-carboxamide] are 0.25 to 0.5 µM and 0.025 to 0.1 µM.
With `CNC1CCN(Cc2ncc(-c3ccc(Cl)c(NC(=O)c4coc(N)n4)c3)s2)CC1` [Example 91, 2-Amino-N-[2-chloro-5-(2-{[4-(methylamino)piperidin-1-yl]methyl}-1,3-thiazol-5-yl)phenyl]-1,3-oxazole-4-carboxamide], the EC50 in experiment [1] is less than 0.1 µM. The same molecule showed a concentration for half-maximal inhibition (IC50) in experiment [2] of less than 0.01 µM.
In experiment [1], `CNCCCOc1ccc(-c2ccc(Cl)c(NC(=O)c3coc(N)n3)c2)cn1` [Example 70, 2-Amino-N-(2-chloro-5-(6-(3-(methylamino)propoxy)pyridin-3-yl)phenyl)oxazole-4-carboxamide] yielded an EC50 of 0.1 to 0.25 µM. Besides, the IC50 in experiment [2] is 0.01 to 0.025 µM.
On the same counts, the results for `CN(C)C1CCN(C(=O)Cn2cc(-c3ccc(Cl)c(NC(=O)c4coc(N)n4)c3)cn2)CC1` [Example 59, 2-Amino-N-[2-chloro-5-(1-{2-[4-(dimethylamino)piperidin-1-yl]-2-oxoethyl}-1H-pyrazol-4-yl)phenyl]-1,3-oxazole-4-carboxamide] are 0.25 to 0.5 µM and 0.025 to 0.1 µM.
`Nc1nc(C(=O)Nc2cc(-c3cnn(C4CCNC4)c3)ccc2Cl)co1` (stereo not drawn) [Example 41, 2-Amino-N-{2-chloro-5-[1-(pyrrolidin-3-yl)-1H-pyrazol-4-yl]phenyl}-1,3-oxazole-4-carboxamide]: in experiment [1], the EC50 lay within 0.1 to 0.25 µM. The molecule further gave an IC50 in experiment [2] of 0.025 to 0.1 µM.
Turning to `Nc1nc(C(=O)Nc2cc(-c3cnn(CCCN4CCNCC4)c3)ccc2Cl)co1` [Example 51, 2-Amino-N-(2-chloro-5-(1-(3-(piperazin-1-yl)propyl)-1H-pyrazol-4-yl)phenyl)oxazole-4-carboxamide], the EC50 in experiment [1] lay within 0.1 to 0.25 µM. Moreover, the half-inhibitory concentration (IC50) in experiment [2] was less than 0.01 µM.
Taken in the same sequence, the figures for `CN(C)CCC(=O)N1CCC(n2cc(-c3ccc(Cl)c(NC(=O)c4coc(N)n4)c3)cn2)CC1` [Example 63, 2-Amino-N-(2-chloro-5-{1-[1-(N,N-dimethyl-beta-alanyl)piperidin-4-yl]-1H-pyrazol-4-yl}phenyl)-1,3-oxazole-4-carboxamide] were 0.25 to 0.5 µM and more than 0.1 µM.
In experiment [1], `CN(C)CCOc1ccc(-c2ccc(Cl)c(NC(=O)c3coc(N)n3)c2)cn1` [Example 73, 2-Amino-N-(2-chloro-5-(6-(2-(dimethylamino)ethoxy)pyridin-3-yl)phenyl)oxazole-4-carboxamide] showed a half-maximal effective concentration (EC50) of 0.25 to 0.5 µM. In experiment [2], this molecule gave an IC50 of 0.025 to 0.1 µM.
For the molecule `CSc1ccc(-c2ccc(OCCCN(C)C)nc2)cc1NC(=O)c1coc(N)n1` [Example 92, 2-Amino-N-[5-{6-[3-(dimethylamino)propoxy]pyridin-3-yl}-2-(methylsulfanyl)phenyl]-1,3-oxazole-4-carboxamide], in experiment [1], the EC50 was 0.25 to 0.5 µM. Also, the IC50 in experiment [2] lay in the range of 0.025 to 0.1 µM.

As usually defined, the EC50 is the midpoint of the concentration-response curve. A high value points to weaker potency. Broadly, the IC50 is the midpoint of a concentration-inhibition curve. A higher IC50 goes with weaker potency.
